Data from US12150926B2 (SICHUAN JIUZHANG BIOLOGICAL SCIENCE AND TECHNOLOGY CO., LTD., priority 2018, dated 2024).

What was measured:
[1] = test system: transplanted tumor in S180 sarcoma-bearing KM mice; test: In vivo inhibitory effect of chlorogenic acid on S180 sarcoma transplantation in KM mice (Experimental example 1); parameters: species or system mouse; key to growth volume of transplanted tumor: V = 0.52 × L × W² (long × shortest diameter²), in cm³; conditions: for growth volume of transplanted tumor: x ± s, n = 10; for inhibitory effect on the growth volume of transplanted tumors (in words): at different time points, compared with negative control group, chlorogenic acid systemic, local and systemic+local groups 30 mg/kg, ADM 2 mg/kg; for Tumor inhibiton rate: from tumor weight vs negative group; for Tumor weight: at termination
Protocol: (§1) KM mice, half male and half female, weighing 17-24 g.
S180 cell lines were mouse sarcoma cells, and suspendedly grew in DH medium, containing 20% calf serum, 1 mmol/L glutamine, 100 U·ml^−1 penicillin, and 100 μg·ml^−1 streptomycin, then cultured in 37° C. 5% CO2, saturated humidity incubator. The medium was changed every 2-3 days for passage.
S180 cells in the logarithmic growth phase were harvested, centrifuged at 1000 rpm for 5 min, washed twice, and the number of viable cells was counted by trypan blue staining. The cells were inoculated into the abdominal cavity of KM mice as soon as possible, and these mice were used as breeding mice. 2) In vivo experiment The ascites was extracted from 7 to 10 days, and the number of cells was adjusted to (about 1×10^6 cells) after dilution. The cell suspension in ascites was inoculated subcutaneously in the axillary of the left forelimb of the mice at 0.2 ml/animal.
(§2) Negative group: intraperitoneally injected, once a day, receiving an equal volume of normal saline. On the 5th day after inoculation, the tumor volume was measured (V=0.52×L (the long diameter of the transplanted tumor)×W^2 (the shortest diameter of the transplanted tumor)), and the mice were weighed every three days. The experiment was terminated when the average tumor size in the negative group was more than 1 g (the tumor volume was about […]). The mice were sacrificed by cervical vertebra luxation and weighed, the tumor was removed, and the tumor inhibitory rate was calculated. Tumor inhibitory rate %=[1−(average tumor weight in drug group/average tumor weight in negative group)]×100%.

[2] = test system: transplanted tumor in S180 sarcoma-bearing KM mice; test: In vivo inhibitory effect of chlorogenic acid composition on S180 sarcoma transplantation in KM mice (Experimental example 2); parameters: species or system mouse; key to growth volume of transplanted tumor: tumor volume V=0.52×L×W² (long × shortest diameter²); conditions: for inhibitory effect on the growth volume of transplanted tumors (in words): at different time points, compared with negative control group, i.p. once a day, 30 mg/kg (ADM 2 mg/kg); for Tumor weight / Tumor inhibition rate / growth volume of transplanted tumor: intraperitoneally, once a day; for Tumor weight: at termination; for Tumor inhibition rate: from tumor weight vs negative group; for growth volume of transplanted tumor: x ± s, n = 10
Protocol: S180 sarcoma transplantation in KM mice
as §1
S180 cell lines were mouse sarcoma cells, and suspendedly grew in DH medium, containing 20% calf serum, 1 mmol/L glutamine, 100 U·ml^−1 penicillin, and 100 μg·ml^−1 streptomycin, then cultured in 37° C., 5% CO2, saturated humidity incubator. The medium was changed every 2-3 days for passage.
S180 cells in the logarithmic growth phase were harvested, centrifuged at 1000 rpm for 5 min, washed twice, and the number of viable cells was counted by trypan blue staining. The cells were inoculated into the abdominal cavity of KM mice as soon as possible, and these mice were used as breeding mice.
The ascites was extracted from 7 to 10 days, and the number of cells was adjusted to (about 1×10^6 cells) after dilution. The cell suspension in ascites was inoculated subcutaneously in the axillary of the left forelimb of the mice at 0.2 ml/animal. […] Coumaroylquinic acid group: intraperitoneally injected, once a day, at a dose of 30 mg·kg^−1.
Negative group: intraperitoneally injected, once a day, receiving an equal volume of normal saline.
as §2, with “On” for “Negative group: intraperitoneally injected, once a day, receiving an equal volume of normal saline. On”

[3] = systemic + local administration: i.v. once a day 30 mg/kg plus s.c. peri-lesion once every 5 days 30 mg/kg
[4] = time after inoculation 74, 30 mg/kg
[5] = time after inoculation 134 [sic], 30 mg/kg
[6] = time after inoculation printed 94, 30 mg/kg
[7] = time after inoculation printed 114, 30 mg/kg

With `COc1cccc2c1C(=O)c1c(O)c3c(c(O)c1C2=O)C[C@@](O)(C(=O)CO)C[C@@H]3O[C@H]1C[C@H](N)[C@H](O)[C@H](C)O1` [ADM, adriamycin, reference compound] the “growth volume of transplanted tumor” value ([1]; 5 d after inoculation, intraperitoneally, once a day, 2 mg/kg) was 0.096 ± 0.041, the “growth volume of transplanted tumor” value ([1]; 9 d after inoculation, intraperitoneally, once a day, 2 mg/kg) was 0.199 ± 0.080 and the “growth volume of transplanted tumor” value ([1]; 11 d after inoculation, intraperitoneally, once a day, 2 mg/kg) was 0.333 ± 0.159. For the same molecule, the “growth volume of transplanted tumor” value ([1]; 13 d after inoculation, intraperitoneally, once a day, 2 mg/kg) was 0.478 ± 0.241, the “inhibitory effect on the growth volume of transplanted tumors (in words)” value [1] was “significant inhibitory effect” and the Tumor inhibiton rate ([1]; intraperitoneally, once a day, 2 mg/kg, listed as Adriamycin (ADM), 2 mg/kg) was 56.95%. The “inhibitory effect on the growth volume of transplanted tumors (in words)” value [2] was “significant inhibitory effect”, the Tumor weight ([2]; 2 mg/kg) was 1.132 ± 0.552 g and the Tumor inhibition rate ([2]; 2 mg/kg, listed as Adriamycin (ADM), 2 mg/kg) was 53.38%. For the same molecule, the “growth volume of transplanted tumor” value ([2]; time after inoculation 74, 2 mg/kg) was 0.171 ± 0.082, the “growth volume of transplanted tumor” value ([2]; time after inoculation 134 [sic], 2 mg/kg) was 0.492 ± 0.204 and the “growth volume of transplanted tumor” value ([2]; time after inoculation printed 54, 2 mg/kg) was 0.116 ± 0.073. The “growth volume of transplanted tumor” value ([2]; time after inoculation printed 114, 2 mg/kg) was 0.363 ± 0.128.

In the case of `O=C(/C=C/c1ccc(O)c(O)c1)O[C@@H]1C[C@](O)(C(=O)O)C[C@@H](O)[C@H]1O` [Chlorogenic acid], the “growth volume of transplanted tumor” value ([1]; 5 d after inoculation, local administration: subcutaneously into periphery of in situ lesion, once a day, 30 mg/kg) was 0.152 ± 0.028, the “growth volume of transplanted tumor” value ([1]; 5 d after inoculation, systemic administration: intravenously, once a day, 30 mg/kg) was 0.141 ± 0.032 and the “growth volume of transplanted tumor” value ([1]; 7 d after inoculation, local administration: subcutaneously into periphery of in situ lesion, once a day, 30 mg/kg) was 0.221 ± 0.047. The “growth volume of transplanted tumor” value ([1]; 7 d after inoculation, systemic + local administration: i.v. once a day 30 mg/kg plus s.c. peri-lesion once every 5 days 30 mg/kg) was 0.186 ± 0.065, the “growth volume of transplanted tumor” value ([1]; 7 d after inoculation, systemic administration: intravenously, once a day, 30 mg/kg) was 0.205 ± 0.061 and the “growth volume of transplanted tumor” value ([1]; 9 d after inoculation, local administration: subcutaneously into periphery of in situ lesion, once a day, 30 mg/kg) was 0.311 ± 0.064. The “growth volume of transplanted tumor” value ([1]; 9 d after inoculation, systemic + local administration: i.v. once a day 30 mg/kg plus s.c. peri-lesion once every 5 days 30 mg/kg) was 0.243 ± 0.066, the “growth volume of transplanted tumor” value ([1]; 9 d after inoculation, systemic administration: intravenously, once a day, 30 mg/kg) was 0.289 ± 0.082 and the “growth volume of transplanted tumor” value ([1]; 11 d after inoculation, local administration: subcutaneously into periphery of in situ lesion, once a day, 30 mg/kg) was 0.535 ± 0.078. For the same molecule, the “growth volume of transplanted tumor” value ([1]; 11 d after inoculation, systemic + local administration: i.v. once a day 30 mg/kg plus s.c. peri-lesion once every 5 days 30 mg/kg) was 0.344 ± 0.127, the “growth volume of transplanted tumor” value ([1]; 11 d after inoculation, systemic administration: intravenously, once a day, 30 mg/kg) was 0.504 ± 0.158 and the “growth volume of transplanted tumor” value ([1]; 13 d after inoculation, local administration: subcutaneously into periphery of in situ lesion, once a day, 30 mg/kg) was 0.651 ± 0.154. The “growth volume of transplanted tumor” value ([1]; 13 d after inoculation, systemic + local administration: i.v. once a day 30 mg/kg plus s.c. peri-lesion once every 5 days 30 mg/kg) was 0.446 ± 0.157, the “growth volume of transplanted tumor” value ([1]; 13 d after inoculation, systemic administration: intravenously, once a day, 30 mg/kg) was 0.593 ± 0.213 and the “inhibitory effect on the growth volume of transplanted tumors (in words)” value [1] was “significant inhibitory effect”. It also gave a Tumor weight ([1]; local administration: s.c. peri-lesion, once a day, 30 mg/kg) of 1.324 ± 0.239 g, a Tumor inhibiton rate ([1]; local administration: s.c. peri-lesion, once a day, 30 mg/kg, 30 mg/kg) of 41.36% and a Tumor weight [1, 3] of 0.957 ± 0.308 g. The Tumor inhibiton rate [1, 3] was 57.62%, the Tumor weight ([1]; systemic administration: intravenously, once a day, 30 mg/kg) was 1.183 ± 0.215 g and the Tumor inhibiton rate ([1]; systemic administration: intravenously, once a day, 30 mg/kg, 30 mg/kg) was 47.61%. For the same molecule, the “inhibitory effect on the growth volume compared with the systemic administration group and the local administration group (in words)” value ([1]; systemic+local administration group) was “better inhibitory effect”, the “inhibitory effect on the growth volume of transplanted tumors (in words)” value [2] was “significant inhibitory effect” and the Tumor inhibition rate ([2]; 30 mg/kg, 30 mg/kg) was 48.64%. The “growth volume of transplanted tumor” value [2, 4] was 0.242 ± 0.053, the “growth volume of transplanted tumor” value [2, 5] was 0.811 ± 0.142 and the “growth volume of transplanted tumor” value [2, 6] was 0.326 ± 0.071. For the same molecule, the “growth volume of transplanted tumor” value [2, 7] was 0.453 ± 0.093.

coumaroylquinic acid was tested, and the “inhibitory effect on the growth volume of transplanted tumors (in words)” value [2] was “didn't show inhibitory effect”, the Tumor weight ([2]; 30 mg/kg) was 2.303 ± 0.475 g and the Tumor inhibition rate ([2]; 30 mg/kg, 30 mg/kg) was 5.15%. For the same molecule, the Tumor inhibition rate ([2]; 30 mg/kg, listed as coumaroylquinic acid, 30 mg/kg) was 5%, the “growth volume of transplanted tumor” value [2, 4] was 0.364 ± 0.074 and the “growth volume of transplanted tumor” value [2, 5] was 1.106 ± 0.137. The “growth volume of transplanted tumor” value ([2]; time after inoculation printed 54, 30 mg/kg) was 0.209 ± 0.058, the “growth volume of transplanted tumor” value [2, 6] was 0.573 ± 0.093 and the “growth volume of transplanted tumor” value [2, 7] was 0.898 ± 0.075.
